Measured values as given in ChEMBL document CHEMBL3526034 (Drug Metab Dispos, 2013).

Tests used:
[1] = biological target: Solute carrier organic anion transporter family member 1B3 (Homo sapiens, UniProt Q9NPD5); assay: Inhibition of human OATP1B3 expressed in BacMam baculovirus virus infected HEK MSR2 cells using [3H]estradiol 17beta-D-glucuronide as substrate by liquid scintillation counting analysis; assay type: ADME, HEK293
Cytochrome P450 3A4 = Cytochrome P450 3A4 (Homo sapiens, UniProt P08684); assay: Drug metabolism in supersomes expressing human recombinant CYP3A4 assessed as NADPH-fortified enzyme-mediated metabolite M3 ((4R,12aS)-N-((3,5-difluorophenyl)(hydroxy)methyl)-7-hydroxy-4-methyl-6,8-dioxo-3,4,6,8,12,12a-hexahydro-2H-[1,3]oxazino[3,2-d]pyrido[1,2-a]pyrazine-9-carboxamide) formation at 5 uM after 120 mins by radio-HPLC analysis in presence of selective CYP3A4 inhibitor azamulin; assay type: ADME
Chain of Cytochrome P450 3A4 (P08684 whole entry): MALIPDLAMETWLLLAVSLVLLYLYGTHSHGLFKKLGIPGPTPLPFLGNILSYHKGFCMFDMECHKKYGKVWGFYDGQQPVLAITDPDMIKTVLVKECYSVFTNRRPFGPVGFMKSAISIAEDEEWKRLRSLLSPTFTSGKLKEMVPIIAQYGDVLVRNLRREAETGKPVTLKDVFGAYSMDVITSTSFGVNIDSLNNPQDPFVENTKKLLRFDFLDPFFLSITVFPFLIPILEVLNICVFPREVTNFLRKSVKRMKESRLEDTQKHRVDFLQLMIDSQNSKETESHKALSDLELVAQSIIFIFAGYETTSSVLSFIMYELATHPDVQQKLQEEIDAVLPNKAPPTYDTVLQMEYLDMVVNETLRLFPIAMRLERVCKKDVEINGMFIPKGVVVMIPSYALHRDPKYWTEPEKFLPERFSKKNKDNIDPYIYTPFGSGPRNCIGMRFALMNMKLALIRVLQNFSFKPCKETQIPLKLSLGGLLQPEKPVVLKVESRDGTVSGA

Liver microsome = assay: (§1) Drug metabolism in UDPGA-fortified human liver microsomes assessed as DTG glucuronide metabolite ((2S,3S,4S,5R,6S)-6-((4R,12aS)-9-(2,4-difluorobenzylcarbamoyl)-4-methyl-6,8-dioxo-3,4,6,8,12,12a-hexahydro-2H-[1,3]oxazino[3,2-d]pyrido[1,2-a]pyrazin-7-yloxy)-3,4,5-trihydroxytetrahydro-2H-pyran-2-carboxylic acid) formation at 16 uM treated for 4 hrs by radio-HPLC analysis; assay type: ADME
CYP2C9 = CYP2C9 (Homo sapiens, UniProt P11712); assay: Inhibition of CYP2C9 in human liver microsomes using diclofenac as substrate at 100 uM preincubated for 20 mins with substrate prior to initiation of reaction with NADPH by HPLC analysis; assay type: ADME; conditions: probe diclofenac
Chain of CYP2C9 (P11712 whole entry): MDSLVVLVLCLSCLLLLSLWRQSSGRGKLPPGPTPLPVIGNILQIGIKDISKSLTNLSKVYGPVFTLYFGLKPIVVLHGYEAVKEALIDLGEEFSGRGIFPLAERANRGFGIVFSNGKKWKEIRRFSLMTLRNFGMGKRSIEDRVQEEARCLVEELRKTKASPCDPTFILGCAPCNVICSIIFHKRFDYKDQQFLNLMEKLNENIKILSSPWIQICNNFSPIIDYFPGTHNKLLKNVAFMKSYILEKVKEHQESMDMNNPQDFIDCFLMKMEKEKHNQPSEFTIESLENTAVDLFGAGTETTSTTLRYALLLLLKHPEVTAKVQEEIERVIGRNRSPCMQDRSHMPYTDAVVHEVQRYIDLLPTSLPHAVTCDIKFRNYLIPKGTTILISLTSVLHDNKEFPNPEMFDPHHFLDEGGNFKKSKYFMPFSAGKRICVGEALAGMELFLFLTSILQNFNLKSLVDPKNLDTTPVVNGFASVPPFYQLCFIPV

BCRP (ABCG2) = biological target: T1, BCRP (ABCG2) (Homo sapiens, UniProt Q9UNQ0); assay: Activity at human BCRP expressed in MDCK2 cells assessed as apical to basolateral mass balance at 3 uM by liquid scintillation counting analysis; assay type: ADME, cell-based, MDCK-II; conditions: read-out: Activity
T1 sequence (Q9UNQ0 whole entry): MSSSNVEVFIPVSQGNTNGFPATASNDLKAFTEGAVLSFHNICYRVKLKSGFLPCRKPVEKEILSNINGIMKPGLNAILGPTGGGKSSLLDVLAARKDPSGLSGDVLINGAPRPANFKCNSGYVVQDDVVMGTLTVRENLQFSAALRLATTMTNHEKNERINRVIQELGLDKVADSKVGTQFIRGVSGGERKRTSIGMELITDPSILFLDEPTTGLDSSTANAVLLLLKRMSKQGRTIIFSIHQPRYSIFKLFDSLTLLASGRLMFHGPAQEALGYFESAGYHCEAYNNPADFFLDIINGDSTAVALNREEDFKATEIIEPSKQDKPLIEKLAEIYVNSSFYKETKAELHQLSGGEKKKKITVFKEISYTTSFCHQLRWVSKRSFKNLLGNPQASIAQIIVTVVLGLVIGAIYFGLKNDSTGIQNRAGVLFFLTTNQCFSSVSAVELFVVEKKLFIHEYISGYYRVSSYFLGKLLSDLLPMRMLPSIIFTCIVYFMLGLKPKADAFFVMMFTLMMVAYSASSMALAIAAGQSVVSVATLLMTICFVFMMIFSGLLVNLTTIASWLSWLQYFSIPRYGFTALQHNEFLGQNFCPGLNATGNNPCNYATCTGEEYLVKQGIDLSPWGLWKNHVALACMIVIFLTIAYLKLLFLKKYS

UGT1A1 = UGT1A1 (Homo sapiens, UniProt P22309); assay: Inhibition of human recombinant UGT1A1 expressed in supersomes assessed as scopoletin glucuronidation at 100 uM by fluorescence analysis; assay type: ADME; conditions: probe scopoletin
CYP3A4 = CYP3A4 (Homo sapiens, UniProt P08684); assay: Inhibition of CYP3A4 in human liver microsomes using nifedipine as substrate at 100 uM preincubated for 20 mins with substrate prior to initiation of reaction with NADPH by HPLC analysis; assay type: ADME; conditions: probe nifedipine
Chain of CYP3A4 (P08684 whole entry): as the sequence (P08684 whole entry) above

MDR1 (P-gp, ABCB1) = MDR1 (P-gp, ABCB1) (Homo sapiens, UniProt P08183); assay: Activity at human MDR1 expressed in MDCK2 cells assessed as apical to basolateral mass balance at 3 uM by liquid scintillation counting analysis in presence of 3 uM P-gp and BCRP inhibitor GF120918; assay type: ADME, cell-based, MDCK-II; conditions: with GF120918 (P-gp and BCRP inhibitor), read-out: Activity
Chain of MDR1 (P-gp, ABCB1) (P08183 whole entry): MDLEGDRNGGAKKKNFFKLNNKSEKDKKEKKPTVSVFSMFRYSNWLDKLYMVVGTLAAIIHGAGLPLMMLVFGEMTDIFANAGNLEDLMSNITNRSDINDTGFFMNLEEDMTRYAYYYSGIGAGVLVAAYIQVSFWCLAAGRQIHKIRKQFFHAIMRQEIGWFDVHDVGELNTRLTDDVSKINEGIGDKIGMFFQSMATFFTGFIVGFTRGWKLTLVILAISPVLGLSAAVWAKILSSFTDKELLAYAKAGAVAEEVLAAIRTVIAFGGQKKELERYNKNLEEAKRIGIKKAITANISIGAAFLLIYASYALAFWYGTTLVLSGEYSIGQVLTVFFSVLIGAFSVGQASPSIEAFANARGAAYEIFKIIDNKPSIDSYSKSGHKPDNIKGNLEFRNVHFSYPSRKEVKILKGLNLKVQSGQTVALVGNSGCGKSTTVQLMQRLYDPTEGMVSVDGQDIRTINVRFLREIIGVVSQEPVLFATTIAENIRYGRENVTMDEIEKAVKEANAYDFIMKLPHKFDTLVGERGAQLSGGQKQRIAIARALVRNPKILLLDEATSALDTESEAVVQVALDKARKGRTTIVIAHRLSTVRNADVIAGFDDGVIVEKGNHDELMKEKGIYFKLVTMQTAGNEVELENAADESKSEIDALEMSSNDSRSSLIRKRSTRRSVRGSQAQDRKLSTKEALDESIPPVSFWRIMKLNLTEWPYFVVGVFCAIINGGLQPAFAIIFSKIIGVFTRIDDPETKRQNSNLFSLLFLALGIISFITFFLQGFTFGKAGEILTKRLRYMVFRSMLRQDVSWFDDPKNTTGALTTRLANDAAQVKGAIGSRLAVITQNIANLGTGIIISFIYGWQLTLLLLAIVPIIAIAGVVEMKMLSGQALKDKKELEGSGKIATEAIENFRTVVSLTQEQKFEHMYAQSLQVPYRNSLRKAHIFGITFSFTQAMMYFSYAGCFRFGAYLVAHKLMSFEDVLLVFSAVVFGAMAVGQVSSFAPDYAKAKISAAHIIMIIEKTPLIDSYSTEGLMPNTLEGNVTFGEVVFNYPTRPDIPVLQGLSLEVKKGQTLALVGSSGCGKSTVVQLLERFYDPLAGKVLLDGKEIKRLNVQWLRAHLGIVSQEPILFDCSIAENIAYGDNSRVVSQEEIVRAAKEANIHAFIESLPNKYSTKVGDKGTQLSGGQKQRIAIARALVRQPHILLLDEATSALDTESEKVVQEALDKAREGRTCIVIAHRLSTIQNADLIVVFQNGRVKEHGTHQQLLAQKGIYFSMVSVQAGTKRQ

[2] = biological target: UDP-glucuronosyltransferase 2B4 (Homo sapiens, UniProt P06133); assay: as §1, with “metabolism assessed as” for “metabolism in”, “human recombinant UGT2B4-mediated” for “human liver microsomes assessed as”, “uM after 120 mins” for “uM treated for 4 hrs”; assay type: ADME; conditions: recombinant enzyme
[3] = biological target: ATP-binding cassette sub-family C member 2 (Homo sapiens, UniProt Q92887); assay: Inhibition of human MRP2
[4] = biological target: T2, Broad substrate specificity ATP-binding cassette transporter ABCG2 (Homo sapiens, UniProt Q9UNQ0); assay: Inhibition of BCRP (unknown origin) expressed in MDCK2 cells assessed as basolateral to apical transport of [14C]cimetidine at 100 uM after 90 mins by liquid scintillation counting analysis; assay type: ADME, cell-based; conditions: mdck-ii, 1.5 h
T2 sequence (Q9UNQ0 whole entry): T1 sequence (Q9UNQ0 whole entry)

[5] = biological target: UDP-glucuronosyltransferase 1A4 (Homo sapiens, UniProt P22310); assay: as §1, with “metabolism assessed as” for “metabolism in”, “human recombinant UGT1A4-mediated” for “human liver microsomes assessed as”, “uM after 120 mins” for “uM treated for 4 hrs”; assay type: ADME; conditions: recombinant enzyme
[6] = biological target: Solute carrier family 22 member 1 (Homo sapiens, UniProt O15245); assay: Inhibition of human OCT1 expressed in HEK293 cells using [14C]metformin as substrate at 10 uM after 10 mins by liquid scintillation counting analysis; assay type: ADME, cell-based; conditions: hek293, 10 min
Chain of Solute carrier family 22 member 1 (O15245 whole entry): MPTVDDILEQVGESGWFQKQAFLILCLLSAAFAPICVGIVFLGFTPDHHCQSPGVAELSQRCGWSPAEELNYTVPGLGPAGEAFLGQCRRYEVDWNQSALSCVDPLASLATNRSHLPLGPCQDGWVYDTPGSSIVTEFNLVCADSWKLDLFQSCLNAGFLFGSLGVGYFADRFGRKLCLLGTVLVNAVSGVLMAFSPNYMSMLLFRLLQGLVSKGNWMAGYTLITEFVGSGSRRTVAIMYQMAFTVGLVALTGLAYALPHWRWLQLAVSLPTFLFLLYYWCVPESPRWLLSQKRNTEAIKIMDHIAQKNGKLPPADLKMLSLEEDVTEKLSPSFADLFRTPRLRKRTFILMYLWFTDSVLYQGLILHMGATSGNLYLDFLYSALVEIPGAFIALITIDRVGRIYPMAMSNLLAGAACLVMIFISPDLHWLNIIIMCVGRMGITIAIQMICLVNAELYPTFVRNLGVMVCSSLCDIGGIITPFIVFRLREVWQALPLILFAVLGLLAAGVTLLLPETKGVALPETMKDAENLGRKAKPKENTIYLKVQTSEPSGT

CYP2D6 = CYP2D6 (Homo sapiens, UniProt P10635); assay: Inhibition of CYP2D6 in human liver microsomes using bufuralol as substrate at 100 uM preincubated for 20 mins with substrate prior to initiation of reaction with NADPH by HPLC analysis; assay type: ADME; conditions: probe bufuralol
[7] = biological target: UDP-glucuronosyltransferase 1A9 (Homo sapiens, UniProt O60656); assay: as §1, with “metabolism assessed as” for “metabolism in”, “human recombinant UGT1A9-mediated” for “human liver microsomes assessed as”, “uM after 120 mins” for “uM treated for 4 hrs”; assay type: ADME; conditions: recombinant enzyme
[8] = Drug excretion in human feces at 20 mg, po; assay type: ADME, tissue-based; conditions: faeces, read-out: Drug excretion
Cytochrome P450 2C19 = Cytochrome P450 2C19 (Homo sapiens, UniProt P33261); assay: Drug metabolism in supersomes expressing human recombinant CYP2C19 assessed as NADPH-fortified enzyme-mediated metabolite formation at 5 uM after 120 mins by radio HPLC analysis; assay type: ADME; conditions: 2 h
Chain of Cytochrome P450 2C19 (P33261 whole entry): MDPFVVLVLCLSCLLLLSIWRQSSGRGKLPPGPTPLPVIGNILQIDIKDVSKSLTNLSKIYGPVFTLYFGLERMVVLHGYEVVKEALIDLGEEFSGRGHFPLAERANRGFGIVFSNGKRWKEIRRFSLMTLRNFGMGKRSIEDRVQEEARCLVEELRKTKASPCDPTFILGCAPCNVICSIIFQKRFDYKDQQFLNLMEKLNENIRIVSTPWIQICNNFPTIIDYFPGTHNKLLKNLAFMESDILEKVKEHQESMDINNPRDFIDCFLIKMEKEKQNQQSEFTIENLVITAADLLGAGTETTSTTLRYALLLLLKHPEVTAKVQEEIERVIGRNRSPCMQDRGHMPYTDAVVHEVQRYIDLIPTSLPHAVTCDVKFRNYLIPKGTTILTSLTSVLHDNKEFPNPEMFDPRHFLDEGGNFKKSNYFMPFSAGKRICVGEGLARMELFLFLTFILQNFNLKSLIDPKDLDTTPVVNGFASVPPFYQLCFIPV

Cytochrome P450 2A6 = Cytochrome P450 2A6 (Homo sapiens, UniProt P11509); assay: Inhibition of CYP2A6 in human liver microsomes using coumarin as substrate preincubated for 20 mins with substrate prior to initiation of reaction with NADPH by HPLC analysis; assay type: ADME
Chain of Cytochrome P450 2A6 (P11509 whole entry): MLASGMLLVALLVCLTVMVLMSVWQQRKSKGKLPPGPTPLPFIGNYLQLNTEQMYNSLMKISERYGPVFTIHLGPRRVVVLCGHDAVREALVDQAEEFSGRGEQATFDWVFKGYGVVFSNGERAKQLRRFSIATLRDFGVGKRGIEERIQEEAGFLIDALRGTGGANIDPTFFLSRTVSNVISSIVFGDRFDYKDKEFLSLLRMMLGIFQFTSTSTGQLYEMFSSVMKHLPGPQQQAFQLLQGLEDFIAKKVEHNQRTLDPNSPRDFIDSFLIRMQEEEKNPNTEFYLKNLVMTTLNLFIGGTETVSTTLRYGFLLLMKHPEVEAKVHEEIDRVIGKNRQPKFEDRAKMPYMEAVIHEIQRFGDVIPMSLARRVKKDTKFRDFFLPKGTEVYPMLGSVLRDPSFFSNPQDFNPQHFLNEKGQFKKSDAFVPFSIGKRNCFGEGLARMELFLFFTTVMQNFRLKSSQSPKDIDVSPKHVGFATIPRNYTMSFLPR

Chain of Solute carrier organic anion transporter family member 1B3 (Q9NPD5 whole entry): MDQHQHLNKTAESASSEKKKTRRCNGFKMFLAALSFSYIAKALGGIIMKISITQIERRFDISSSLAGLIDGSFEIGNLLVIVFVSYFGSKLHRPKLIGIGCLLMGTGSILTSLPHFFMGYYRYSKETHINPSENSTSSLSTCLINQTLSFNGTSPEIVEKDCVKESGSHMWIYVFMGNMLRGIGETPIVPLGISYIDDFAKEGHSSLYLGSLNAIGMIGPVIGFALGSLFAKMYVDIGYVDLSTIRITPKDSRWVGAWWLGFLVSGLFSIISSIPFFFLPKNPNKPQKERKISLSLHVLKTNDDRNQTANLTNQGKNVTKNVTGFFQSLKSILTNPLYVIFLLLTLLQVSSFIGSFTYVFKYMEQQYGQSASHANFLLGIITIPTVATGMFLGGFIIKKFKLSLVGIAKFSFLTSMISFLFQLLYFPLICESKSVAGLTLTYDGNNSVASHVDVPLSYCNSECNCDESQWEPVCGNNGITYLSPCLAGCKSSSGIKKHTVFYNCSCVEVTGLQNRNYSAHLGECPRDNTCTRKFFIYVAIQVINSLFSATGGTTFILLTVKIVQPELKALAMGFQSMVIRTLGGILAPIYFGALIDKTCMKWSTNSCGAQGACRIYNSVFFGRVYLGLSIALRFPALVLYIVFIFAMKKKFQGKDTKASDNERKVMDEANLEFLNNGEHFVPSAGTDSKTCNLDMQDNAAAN

**Q.** With `C[C@@H]1CCO[C@H]2Cn3cc(C(=O)NCc4ccc(F)cc4F)c(=O)c(O)c3C(=O)N12` [DOLUTEGRAVIR] as the compound, how does the IC50 [1] read?
**A.** > 100 µM

**Q.** And the Drug metabolism (Cytochrome P450 3A4)?
**A.** metabolite_not_detected

**Q.** What about the Drug metabolism (Liver microsome) of the same compound?
**A.** metabolite_detected

**Q.** What about the inhibition at 100 µM (CYP2C9) of the same compound?
**A.** 20%

**Q.** And the recovery at 3 µM (BCRP (ABCG2))?
**A.** 81%

**Q.** What about the inhibition at 100 µM (UGT1A1) of the same compound?
**A.** 33%

**Q.** And the inhibition at 100 µM (CYP3A4)?
**A.** 20%

**Q.** And the recovery at 3 µM (MDR1 (P-gp, ABCB1))?
**A.** 84%

**Q.** And the Drug metabolism [2]?
**A.** metabolite_not_detected

**Q.** What about the IC50 [3] of the same compound?
**A.** > 90 µM

**Q.** What about the “inhibition (INH)” value [4] of the same compound?
**A.** 50%

**Q.** What about the Drug metabolism [5] of the same compound?
**A.** metabolite_not_detected

**Q.** And the “inhibition (INH)” value [6]?
**A.** 22%

**Q.** And the inhibition at 100 µM (CYP2D6)?
**A.** 20%

**Q.** And the Drug metabolism [7]?
**A.** metabolite_detected

**Q.** And the dose excreted [8]?
**A.** 3.1%

**Q.** What about the Drug metabolism (Cytochrome P450 2C19) of the same compound?
**A.** metabolite_not_detected

**Q.** And the IC50 (Cytochrome P450 2A6)?
**A.** > 100 µM
